pKi: −log10 of the molar value. Read-outs that look alike come from different tables or passages of the source.
Key:
Type in all cases: biochemical
[1] = target: hCA I (Homo sapiens, UniProt P00915); assay: CA inhibition, stopped-flow CO2 hydrase assay, hCA I
Procedure: (§1) An Applied Photophysics stopped-flow instrument has been used for assaying the CA-catalyzed CO2 hydration activity. […] The initial rates of the CA-catalysed CO2 hydration reaction were followed for a period of 10−100 s. The CO2 concentrations ranged from 1.7 to 17 mM for the determination of the kinetic parameters and inhibition constants. […] The uncatalyzed rates were determined in the same manner and subtracted from the total observed ones. Stock solutions of each inhibitor (0.1 mM) were prepared in distilled − deionized water and dilutions up to 0.01 nM were done thereafter with distilled − deionized water. Inhibitor and enzyme solutions were preincubated together for 15 min at room temperature prior to assay to allow for the formation of the E−I complex. The inhibition constants were obtained by nonlinear least-squares methods using the Cheng-Prusoff equation and represent the mean from at least three different determinations. […] Human CA isoforms were recombinant enzymes obtained in-house as reported earlier.

[2] = target: hCA II (Homo sapiens, UniProt P00918); assay: CA inhibition, stopped-flow CO2 hydrase assay, hCA II
Procedure: as §1

[3] = target: hCA IX (Homo sapiens, UniProt Q16790); assay: CA inhibition, stopped-flow CO2 hydrase assay, hCA IX
Procedure: as §1

[4] = target: hCA XII (Homo sapiens, UniProt O43570); assay: CA inhibition, stopped-flow CO2 hydrase assay, hCA XII
hCA XII, sequence (O43570 25-354): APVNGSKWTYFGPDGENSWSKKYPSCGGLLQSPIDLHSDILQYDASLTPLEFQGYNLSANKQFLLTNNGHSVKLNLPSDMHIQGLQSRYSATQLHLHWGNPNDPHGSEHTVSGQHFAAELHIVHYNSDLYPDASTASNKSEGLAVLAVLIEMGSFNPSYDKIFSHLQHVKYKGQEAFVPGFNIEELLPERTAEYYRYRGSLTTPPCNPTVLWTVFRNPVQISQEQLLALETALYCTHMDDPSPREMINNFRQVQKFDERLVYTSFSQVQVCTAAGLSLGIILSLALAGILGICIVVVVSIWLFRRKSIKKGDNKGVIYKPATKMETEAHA
Procedure: as §1

[5] = Table 1, saccharin-based derivatives, recombinant enzyme, 15 min preincubation, pH 7.5

hCA I, sequence (P00915 whole entry): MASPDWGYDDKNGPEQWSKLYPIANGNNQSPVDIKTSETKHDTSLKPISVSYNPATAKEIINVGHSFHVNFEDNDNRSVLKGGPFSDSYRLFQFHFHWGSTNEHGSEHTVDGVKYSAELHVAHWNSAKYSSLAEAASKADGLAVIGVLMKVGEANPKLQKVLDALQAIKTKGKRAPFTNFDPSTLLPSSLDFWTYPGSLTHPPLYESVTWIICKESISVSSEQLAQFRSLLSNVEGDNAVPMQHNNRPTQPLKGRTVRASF

Compound	pKi [1]	pKi [1, 5]	pKi [2]	pKi [2, 5]	pKi [3]	pKi [3, 5]	pKi [4]	inhibitory activity against hCA I, in words [1]	inhibitory activity against hCA II, in words [2]	pKi [4, 5]
CC(C)=CCN1C(=O)c2ccccc2S1(=O)=O [Compound 1]	< 3.00	< 3.00	< 3.00	< 3.00	6.41	6.41	6.64	–	–	–
O=C1c2ccccc2S(=O)(=O)N1Cc1ccccc1Cl [Compound 2]	–	< 3.00	–	< 3.00	–	6.52	6.66	ineffective	ineffective	–
O=C1c2ccccc2S(=O)(=O)N1Cc1cccc(Cl)c1 [Compound 3]	–	< 3.00	–	< 3.00	6.52	7.00	5.89	ineffective	ineffective	–
O=C(CN1C(=O)c2ccccc2S1(=O)=O)c1cccc([N+](=O)[O-])c1 [Compound 4]	–	< 3.00	–	< 3.00	< 3.00	< 3.00	6.39	ineffective	ineffective	–
COC(=O)c1ccccc1S(=O)(=O)Nc1ccccc1 [Compound 5]	–	< 3.00	–	< 3.00	–	4.22	–	–	–	< 3.00
COC(=O)c1ccccc1S(=O)(=O)Nc1ccc(F)cc1 [Compound 6]	–	< 3.00	–	< 3.00	–	3.58	–	–	–	< 3.00
COC(=O)c1ccccc1S(=O)(=O)Nc1ccccc1Cl [Compound 7]	–	< 3.00	–	< 3.00	–	3.37	–	–	–	< 3.00
COC(=O)c1ccccc1S(=O)(=O)Nc1ccc(Cl)cc1 [Compound 8]	–	< 3.00	–	< 3.00	–	3.02	–	–	–	< 3.00
COC(=O)c1ccccc1S(=O)(=O)Nc1ccc(Br)cc1 [Compound 9]	–	< 3.00	–	3.16	–	5.17	–	–	–	< 3.00
COC(=O)c1ccccc1S(=O)(=O)Nc1ccc(C(F)(F)F)cc1 [Compound 10]	–	< 3.00	–	< 3.00	–	3.25	–	–	–	< 3.00
COC(=O)c1ccccc1S(=O)(=O)Nc1cccc([N+](=O)[O-])c1 [Compound 11]	–	< 3.00	–	< 3.00	–	< 3.00	–	–	–	< 3.00
COC(=O)c1ccccc1S(=O)(=O)Nc1ccc([N+](=O)[O-])cc1 [Compound 12]	–	< 3.00	–	< 3.00	–	4.20	–	–	–	< 3.00
COC(=O)c1ccccc1S(=O)(=O)Nc1ccc(C)cc1 [Compound 13]	–	< 3.00	–	< 3.00	–	4.17	–	–	–	< 3.00
COC(=O)c1ccccc1S(=O)(=O)Nc1c(C)cccc1C [Compound 14]	–	< 3.00	–	< 3.00	–	4.40	–	–	–	< 3.00
COC(=O)c1ccccc1S(=O)(=O)Nc1ccc(C(C)C)cc1 [Compound 15]	–	< 3.00	–	< 3.00	–	4.24	–	–	–	< 3.00
COC(=O)c1ccccc1S(=O)(=O)Nc1ccc(OC)cc1 [Compound 16]	–	< 3.00	–	< 3.00	–	4.03	–	–	–	< 3.00
O=C(O)c1ccccc1S(=O)(=O)Nc1ccccc1 [Compound 17]	–	< 3.00	–	< 3.00	–	4.33	–	–	–	< 3.00
O=C(O)c1ccccc1S(=O)(=O)Nc1ccc(F)cc1 [Compound 18]	–	< 3.00	–	< 3.00	–	4.34	–	–	–	< 3.00
O=C(O)c1ccccc1S(=O)(=O)Nc1ccccc1Cl [Compound 19]	–	< 3.00	–	< 3.00	–	< 3.00	–	–	–	< 3.00
O=C(O)c1ccccc1S(=O)(=O)Nc1ccc(Cl)cc1 [Compound 20]	–	< 3.00	–	< 3.00	–	< 3.00	–	–	–	< 3.00
O=C(O)c1ccccc1S(=O)(=O)Nc1ccc(Br)cc1 [Compound 21]	–	< 3.00	–	< 3.00	–	4.14	–	–	–	< 3.00
O=C(O)c1ccccc1S(=O)(=O)Nc1ccc(C(F)(F)F)cc1 [Compound 22]	–	< 3.00	–	< 3.00	–	4.07	–	–	–	< 3.00
O=C(O)c1ccccc1S(=O)(=O)Nc1cccc([N+](=O)[O-])c1 [Compound 23]	–	< 3.00	–	< 3.00	–	< 3.00	–	–	–	< 3.00

Now from value to molecule:

pKi [1]	pKi [1, 5]	pKi [2]	pKi [2, 5]	pKi [3]	pKi [3, 5]	pKi [4]	inhibitory activity against hCA I, in words [1]	inhibitory activity against hCA II, in words [2]	pKi [4, 5]	Compound
–	< 3.00	4.17	–	6.62	6.62	–	–	–	< 3.00	O=C(O)c1ccccc1S(=O)(=O)Nc1ccc([N+](=O)[O-])cc1 [Compound 24]
–	< 3.00	–	< 3.00	–	< 3.00	–	–	–	< 3.00	Cc1ccc(NS(=O)(=O)c2ccccc2C(=O)O)cc1 [Compound 25]
–	< 3.00	–	< 3.00	–	< 3.00	–	–	–	< 3.00	Cc1cccc(C)c1NS(=O)(=O)c1ccccc1C(=O)O [Compound 26]
–	< 3.00	–	< 3.00	–	< 3.00	–	–	–	< 3.00	CC(C)c1ccc(NS(=O)(=O)c2ccccc2C(=O)O)cc1 [Compound 27]
–	< 3.00	–	< 3.00	–	< 3.00	–	–	–	< 3.00	COc1ccc(NS(=O)(=O)c2ccccc2C(=O)O)cc1 [Compound 28]
–	< 3.00	–	< 3.00	–	< 3.00	–	–	–	< 3.00	O=C1c2ccccc2S(=O)(=O)N1c1ccccc1 [Compound 29]
–	< 3.00	–	< 3.00	–	< 3.00	–	–	–	< 3.00	O=C1c2ccccc2S(=O)(=O)N1c1ccc(F)cc1 [Compound 30]
–	< 3.00	3.32	–	–	3.19	–	–	–	< 3.00	O=C1c2ccccc2S(=O)(=O)N1c1ccccc1Cl [Compound 31]
–	< 3.00	–	< 3.00	–	< 3.00	–	–	–	< 3.00	O=C1c2ccccc2S(=O)(=O)N1c1ccc(Cl)cc1 [Compound 32]
–	< 3.00	–	< 3.00	–	3.06	–	–	–	< 3.00	O=C1c2ccccc2S(=O)(=O)N1c1ccc(Br)cc1 [Compound 33]
–	< 3.00	–	< 3.00	–	< 3.00	–	–	–	< 3.00	O=C1c2ccccc2S(=O)(=O)N1c1ccc(C(F)(F)F)cc1 [Compound 34]
–	< 3.00	–	< 3.00	–	< 3.00	–	–	–	< 3.00	O=C1c2ccccc2S(=O)(=O)N1c1cccc([N+](=O)[O-])c1 [Compound 35]
–	< 3.00	–	< 3.00	3.35	3.35	–	–	–	< 3.00	O=C1c2ccccc2S(=O)(=O)N1c1ccc([N+](=O)[O-])cc1 [Compound 36]
–	< 3.00	–	< 3.00	–	< 3.00	–	–	–	< 3.00	Cc1ccc(N2C(=O)c3ccccc3S2(=O)=O)cc1 [Compound 37]
–	< 3.00	–	< 3.00	–	< 3.00	–	–	–	< 3.00	Cc1cccc(C)c1N1C(=O)c2ccccc2S1(=O)=O [Compound 38]
–	< 3.00	–	< 3.00	–	< 3.00	–	–	–	< 3.00	CC(C)c1ccc(N2C(=O)c3ccccc3S2(=O)=O)cc1 [Compound 39]
–	< 3.00	–	< 3.00	–	< 3.00	–	–	–	< 3.00	COc1ccc(N2C(=O)c3ccccc3S2(=O)=O)cc1 [Compound 40]

Reference: paper PMC7580763, “Novel insights on saccharin- and acesulfame-based carbonic anhydrase inhibitors: design, synthesis, modelling investigations and biological activity evaluation” (Journal of Enzyme Inhibition and Medicinal Chemistry, 2020)
